Bridge positions count the residues as written; N and C are the ends. Square brackets hold non-standard residues; d marks the D form. Peptide text beside a SMILES is read from it. * marks the point of attachment. Ala(imidazo(1,2-a)pyr3yl) = N[C@@H](Cc1cnc2ccccn12)C(=O)O; NMePhe(4-COOH) = CN[C@@H](Cc1ccc(C(=O)O)cc1)C(=O)O; Phe(3-COOH) = N[C@@H](Cc1cccc(C(=O)O)c1)C(=O)O; Trp(7-aza) = N[C@@H](Cc1c[nH]c2ncccc12)C(=O)O; NMePhe(3-Cl) = CN[C@@H](Cc1cccc(Cl)c1)C(=O)O; 3Pal(6-NH2) = Nc1ccc(C[C@H](N)C(=O)O)cn1; NMeW = CN[C@@H](Cc1c[nH]c2ccccc12)C(=O)O; Lys(N3) = [N-]=[N+]=NCCCC[C@H](N)C(=O)O; NMeY = CN[C@@H](Cc1ccc(O)cc1)C(=O)O; Nva(3-Et) = CCC(CC)[C@H](N)C(=O)O; 4Pal = N[C@@H](Cc1ccncc1)C(=O)O; PEG4 = NCCOCCOCCOCCOCCC(=O)O; Carboxymethyl = O=C(O)C*; NH(CH2)3NH2 = NCCCN*
Tests used:
[1] = target: T1, human transferrin receptor (hTfR) (Homo sapiens, UniProt P02786); test: SPR measurement under pH 7.4 conditions (Biacore T200, CM3 chip, hTfR captured by His Tag antibody); type: binding; conditions: read-out: hTfR SPR pH7.4 KD
T1 sequence (P02786 whole entry): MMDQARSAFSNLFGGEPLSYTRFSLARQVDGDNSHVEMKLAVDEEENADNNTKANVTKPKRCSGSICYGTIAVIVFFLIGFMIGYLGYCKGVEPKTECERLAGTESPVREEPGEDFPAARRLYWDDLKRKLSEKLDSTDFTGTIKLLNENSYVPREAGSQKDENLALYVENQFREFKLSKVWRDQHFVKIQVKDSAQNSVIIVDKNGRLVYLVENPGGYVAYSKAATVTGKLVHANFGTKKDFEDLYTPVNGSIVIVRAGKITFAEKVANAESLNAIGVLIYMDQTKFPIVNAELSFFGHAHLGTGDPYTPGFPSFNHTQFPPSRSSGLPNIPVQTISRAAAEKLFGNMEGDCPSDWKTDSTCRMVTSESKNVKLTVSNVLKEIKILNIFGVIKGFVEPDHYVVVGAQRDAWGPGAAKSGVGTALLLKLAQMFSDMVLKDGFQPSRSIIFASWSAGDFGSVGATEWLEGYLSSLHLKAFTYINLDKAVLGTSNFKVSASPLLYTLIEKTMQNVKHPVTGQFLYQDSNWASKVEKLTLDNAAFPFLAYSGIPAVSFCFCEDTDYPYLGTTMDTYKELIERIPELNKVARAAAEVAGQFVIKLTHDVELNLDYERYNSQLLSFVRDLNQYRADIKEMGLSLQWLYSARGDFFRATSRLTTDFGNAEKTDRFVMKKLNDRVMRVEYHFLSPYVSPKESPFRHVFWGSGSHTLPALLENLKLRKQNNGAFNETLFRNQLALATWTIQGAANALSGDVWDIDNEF

[2] = target: T1, human transferrin receptor (hTfR); test: SPR measurement under pH 6.0 conditions (Biacore T200, NTA chip, immobilized hTfR); type: binding; conditions: read-out: hTfR SPR pH6.0 KD
[3] = SPR, pH 7.4, peptide with the linker named in the table
[4] = SPR, pH 6.0, peptide with the linker named in the table

Kd [1, 3] [nM]	Kd [2, 4] [nM]	Kd ([1]; pH 7.4, single-cycle kinetics) [nM]	Kd ([2]; pH 6.0, single-cycle kinetics) [nM]	SMILES
2.75	11.4			CC[C@H](C)[C@@H]1NC(=O)[C@H](Cc2ccc(OC)cc2)NC(=O)[C@H](Cc2ccc(O)cc2)NC(=O)[C@H](CC(N)=O)NC(=O)[C@H](Cc2c[nH]c3ncccc23)NC(=O)[C@H](C(C)C)NC(=O)[C@H](Cc2cccc(Cl)c2)N(C)C(=O)[C@H](C(C)C)NC(=O)[C@H](C)NC(=O)CSC[C@@H](C(=O)NCCOCCOCCOCCOCCC(N)=O)NC(=O)[C@H](Cc2ccc(O)cc2)N(C)C(=O)[C@H](Cc2cccc(C(=O)NCCOCCOCCOCCOCCC(=O)O)c2)NC(=O)[C@H](CCCNC(=N)N)NC(=O)[C@H](CCC(=O)NCCOCCOCCOCCOCCC(=O)O)NC(=O)[C@H]([C@@H](C)CC)NC1=O [compound 146]
		0.215	2.59	CC[C@H](C)[C@@H]1NC(=O)[C@H](Cc2ccc(OC)cc2)NC(=O)[C@H](Cc2ccc(N)nc2)NC(=O)[C@H](CC(N)=O)NC(=O)[C@H](Cc2c[nH]c3ccccc23)N(C)C(=O)[C@H](C(C)C)NC(=O)[C@H](Cc2cccc(Cl)c2)N(C)C(=O)[C@H](C(C)C)NC(=O)[C@H](C)NC(=O)CSC[C@@H](C(=O)NCCOCCOCCOCCOCCC(N)=O)NC(=O)[C@H](Cc2ccc(O)cc2)N(C)C(=O)[C@H](Cc2ccccc2)NC(=O)[C@H](CCCNC(=N)N)NC(=O)[C@H](CCC(=O)NCCCN)NC(=O)[C@H]([C@@H](C)CC)NC1=O [compound 172] ({CH2CO}-AV[NMePhe(3-Cl)]V[NMeW]N[3Pal(6-NH2)]Y(Me)IIE(NH(CH2)3NH2)RF[NMeY]C[PEG4]-NH2; thioether N-15)
		3.04	12.2	CC[C@H](C)[C@@H]1NC(=O)[C@H](Cc2ccc(OC)cc2)NC(=O)[C@H](CCCNC(=N)N)NC(=O)[C@H](CC(N)=O)NC(=O)[C@H](Cc2c[nH]c3ccccc23)N(C)C(=O)[C@H](C(C)C)NC(=O)[C@H](Cc2cccc(Cl)c2)N(C)C(=O)[C@H](C(C)C)NC(=O)[C@H](C)NC(=O)CSC[C@@H](C(=O)NCCOCCOCCOCCOCCC(N)=O)NC(=O)[C@H](Cc2ccc(O)cc2)N(C)C(=O)[C@H](Cc2ccccc2)NC(=O)[C@H](CCCNC(=N)N)NC(=O)[C@H](CCC(=O)NCCCN)NC(=O)[C@H]([C@@H](C)CC)NC1=O [compound 175] ({CH2CO}-AV[NMePhe(3-Cl)]V[NMeW]NRY(Me)IIE(NH(CH2)3NH2)RF[NMeY]C[PEG4]-NH2; thioether N-15)
		0.391	3.1	CC[C@H](C)[C@@H]1NC(=O)[C@H](Cc2ccc(OCC(=O)O)cc2)NC(=O)[C@H](Cc2ccc(O)cc2)NC(=O)[C@H](CC(N)=O)NC(=O)[C@H](Cc2c[nH]c3ccccc23)N(C)C(=O)[C@H](C(C)C)NC(=O)[C@H](Cc2cccc(Cl)c2)N(C)C(=O)[C@H](C(C)C)NC(=O)[C@H](C)NC(=O)CSC[C@@H](C(=O)NCCOCCOCCOCCOCCC(N)=O)NC(=O)[C@H](Cc2ccc(C(=O)NCCOCCOCCOCCOCCC(=O)O)cc2)N(C)C(=O)[C@H](Cc2cccc(C(=O)O)c2)NC(=O)[C@H](CCCNC(=N)N)NC(=O)[C@H](CCCCN)NC(=O)[C@H]([C@@H](C)CC)NC1=O [compound 178] ({CH2CO}-AV[NMePhe(3-Cl)]V[NMeW]NYY(Carboxymethyl)IIKR[Phe(3-COOH)][NMePhe(4-COOH)](PEG4)C[PEG4]-NH2; thioether N-15)
		0.229	0.957	CC[C@H](C)[C@@H]1NC(=O)[C@H](Cc2ccc(OC)cc2)NC(=O)[C@H](Cc2ccc(O)cc2)NC(=O)[C@H](CC(N)=O)NC(=O)[C@H](Cc2c[nH]c3ccccc23)N(C)C(=O)[C@H](C(C)C)NC(=O)[C@H](Cc2cccc(Cl)c2)N(C)C(=O)[C@H](C(C)C)NC(=O)[C@H](C)NC(=O)CSC[C@@H](C(=O)NCCOCCOCCOCCOCCC(N)=O)NC(=O)[C@H](Cc2ccc(C(=O)NCCOCCOCCOCCOCCC(=O)O)cc2)N(C)C(=O)[C@H](Cc2cccc(C(=O)O)c2)NC(=O)[C@H](CCCNC(=N)N)NC(=O)[C@H](CCCCN)NC(=O)[C@H]([C@@H](C)CC)NC1=O [compound 180] ({CH2CO}-AV[NMePhe(3-Cl)]V[NMeW]NYY(Me)IIKR[Phe(3-COOH)][NMePhe(4-COOH)](PEG4)C[PEG4]-NH2; thioether N-15)

Second part, the compound before the results:

SMILES	Kd [1, 3] [nM]	Kd [2, 4] [nM]	Kd ([1]; pH 7.4, single-cycle kinetics) [nM]	Kd ([2]; pH 6.0, single-cycle kinetics) [nM]
CC[C@H](C)[C@@H]1NC(=O)[C@H](Cc2ccc(OCC(=O)O)cc2)NC(=O)[C@H](Cc2ccc(O)cc2)NC(=O)[C@H](CC(N)=O)NC(=O)[C@H](Cc2c[nH]c3ncccc23)NC(=O)[C@H](C(C)C)NC(=O)[C@H](Cc2cccc(Cl)c2)N(C)C(=O)[C@H](C(C)C)NC(=O)[C@H](C)NC(=O)CSC[C@@H](C(=O)NCCOCCOCCOCCOCCC(N)=O)NC(=O)[C@H](Cc2ccc(O)cc2)N(C)C(=O)[C@H](Cc2cccc(C(=O)NCCOCCOCCOCCOCCC(=O)O)c2)NC(=O)[C@H](CCCNC(=N)N)NC(=O)[C@H](CCC(N)=O)NC(=O)[C@H]([C@@H](C)CC)NC1=O [compound 144]	3.56	17.4		
CC[C@H](C)[C@@H]1NC(=O)[C@H](Cc2ccc(OC)cc2)NC(=O)[C@H](Cc2ccc(O)cc2)NC(=O)[C@H](CC(N)=O)NC(=O)[C@H](Cc2c[nH]c3ncccc23)NC(=O)[C@H](C(C)C)NC(=O)[C@H](Cc2cccc(Cl)c2)N(C)C(=O)[C@H](C(C)C)NC(=O)[C@H](C)NC(=O)CSC[C@@H](C(=O)NCCOCCOCCOCCOCCC(N)=O)NC(=O)[C@H](Cc2ccc(O)cc2)N(C)C(=O)[C@H](CCC(=O)NCCOCCOCCOCCOCCC(=O)O)NC(=O)[C@H](CCCNC(=N)N)NC(=O)[C@H](CCC(=O)NCCOCCOCCOCCOCCC(=O)O)NC(=O)[C@H]([C@@H](C)CC)NC1=O [compound 145] ({CH2CO}-AV[NMePhe(3-Cl)]V[Trp(7-aza)]NYY(Me)IIE(PEG4)RE(PEG4)[NMeY]C[PEG4]-NH2; thioether N-15)	48.5	199		
CC[C@H](C)[C@@H]1NC(=O)[C@H](Cc2ccc(OCC(=O)O)cc2)NC(=O)[C@H](Cc2ccc(N)nc2)NC(=O)[C@H](CC(N)=O)NC(=O)[C@H](Cc2c[nH]c3ccccc23)NC(=O)[C@H](C(C)C)NC(=O)[C@H](Cc2cccc(Cl)c2)N(C)C(=O)[C@H](C(C)C)NC(=O)[C@H](C)NC(=O)CSC[C@@H](C(=O)NCC(=O)N[C@@H](CCCCN=[N+]=[N-])C(N)=O)NC(=O)[C@H](Cc2ccc(O)cc2)N(C)C(=O)[C@H](Cc2cccc(C(=O)O)c2)NC(=O)[C@H](CCCNC(=N)N)NC(=O)[C@H](CCC(N)=O)NC(=O)[C@H]([C@@H](C)CC)NC1=O [compound 149]	3.57	28.1		
CC[C@H](C)[C@@H]1NC(=O)[C@H](Cc2ccc(OC)cc2)NC(=O)[C@H](Cc2ccc(N)nc2)NC(=O)[C@H](CC(N)=O)NC(=O)[C@H](Cc2c[nH]c3ccccc23)N(C)C(=O)[C@H](C(C)C)NC(=O)[C@H](Cc2cccc(Cl)c2)N(C)C(=O)[C@H](C(C)C)NC(=O)[C@H](C)NC(=O)CSC[C@@H](C(=O)NCCOCCOCCOCCOCCC(N)=O)NC(=O)[C@H](Cc2ccc(O)cc2)N(C)C(=O)[C@H](Cc2ccccc2)NC(=O)[C@H](CCCNC(=N)N)NC(=O)[C@H](CCC(N)=O)NC(=O)[C@H]([C@@H](C)CC)NC1=O [compound 170] ({CH2CO}-AV[NMePhe(3-Cl)]V[NMeW]N[3Pal(6-NH2)]Y(Me)IIQRF[NMeY]C[PEG4]-NH2; thioether N-15)			1.34	7.61
CC[C@H](C)[C@@H]1NC(=O)[C@H](Cc2ccc(OC)cc2)NC(=O)[C@H](CCCNC(=N)N)NC(=O)[C@H](CC(N)=O)NC(=O)[C@H](Cc2c[nH]c3ccccc23)N(C)C(=O)[C@H](C(C)C)NC(=O)[C@H](Cc2cccc(Cl)c2)N(C)C(=O)[C@H](C(C)C)NC(=O)[C@H](C)NC(=O)CSC[C@@H](C(=O)NCCOCCOCCOCCOCCC(N)=O)NC(=O)[C@H](Cc2ccc(O)cc2)N(C)C(=O)[C@H](Cc2ccccc2)NC(=O)[C@H](CCCNC(=N)N)NC(=O)[C@H](CCC(N)=O)NC(=O)[C@H]([C@@H](C)CC)NC1=O [compound 174] ({CH2CO}-AV[NMePhe(3-Cl)]V[NMeW]NRY(Me)IIQRF[NMeY]C[PEG4]-NH2; thioether N-15)			20.6	75.5
CC[C@H](C)[C@@H]1NC(=O)[C@H](Cc2ccc(OCC(=O)O)cc2)NC(=O)[C@H](Cc2ccc(O)cc2)NC(=O)[C@H](CC(N)=O)NC(=O)[C@H](Cc2c[nH]c3ccccc23)N(C)C(=O)[C@H](C(C)C)NC(=O)[C@H](Cc2cccc(Cl)c2)N(C)C(=O)[C@H](C(C)C)NC(=O)[C@H](C)NC(=O)CSC[C@@H](C(=O)NCCOCCOCCOCCOCCC(N)=O)NC(=O)[C@H](Cc2ccc(O)cc2)N(C)C(=O)[C@H](Cc2cccc(C(=O)O)c2)NC(=O)[C@H](CCCNC(=N)N)NC(=O)[C@H](CCCCN)NC(=O)[C@H]([C@@H](C)CC)NC1=O [compound 177]			0.134	2.26
CCC(CC)[C@@H]1NC(=O)[C@H](Cc2ccc(OC)cc2)NC(=O)[C@H](Cc2ccc(N)nc2)NC(=O)[C@H](CC(N)=O)NC(=O)[C@H](Cc2cnc3ccccn23)NC(=O)[C@H](C(C)C)NC(=O)[C@H](Cc2cccc(Cl)c2)N(C)C(=O)[C@H](C(C)C)NC(=O)[C@H](C)NC(=O)CSC[C@@H](C(=O)NCC(=O)N[C@@H](CCCCN=[N+]=[N-])C(N)=O)NC(=O)[C@H](Cc2ccc(C(=O)O)cc2)N(C)C(=O)[C@H](Cc2ccncc2)NC(=O)[C@H](CCCNC(=N)N)NC(=O)[C@H](CCCNC(=N)N)NC(=O)[C@H]([C@@H](C)CC)NC1=O [compound 181] ({CH2CO}-AV[NMePhe(3-Cl)]V[Ala(imidazo(1,2-a)pyr3yl)]N[3Pal(6-NH2)]Y(Me)[Nva(3-Et)]IRR[4Pal][NMePhe(4-COOH)]CG[Lys(N3)]-NH2; thioether N-15)			24.5	124

From EP4667483A1, “HUMAN TRANSFERRIN RECEPTOR-BINDING PEPTIDE” (JCR Pharmaceuticals Co., Ltd., priority 2023, dated 2024)
